Numbers after ± are expanded uncertainties.
Settings: 101.33 kPa, Liquid; for viscosity: Capillary tube (Ostwald / Ubbelohde) method; for speed of sound: Pulse-echo method; for mass density: Vibrating tube method

Row | viscosity (283.15 K) [mPa·s] | speed of sound (283.15 K) [m/s] | mass density (283.15 K) [kg/m3] | viscosity (298.15 K) [mPa·s] | speed of sound (298.15 K) [m/s] | mass density (298.15 K) [kg/m3] | viscosity (313.15 K) [mPa·s] | speed of sound (313.15 K) [m/s] | mass density (313.15 K) [kg/m3] | SMILES
1 | 2.694 ± 0.02 | 872.7 ± 0.5 | 1408.1 ± 0.3 | 1.755 ± 0.013 | 833.2 ± 0.5 | 1382.56 ± 0.28 | 1.208 ± 0.0095 | 793.3 ± 0.5 | 1356.89 ± 0.27 | OCC(F)(F)F [2,2,2-trifluoroethanol]
2 | 0.5438 ± 0.0055 | 1348.8 ± 1.2 | 898.62 ± 0.47 | 0.4645 ± 0.0048 | 1279 ± 1.2 | 882.18 ± 0.46 | 0.3992 ± 0.0043 | 1204.8 ± 1.2 | 865.95 ± 0.45 | C1CCOC1 [tetrahydrofuran]

Source: the NIST ThermoML archive (doi:10.1021/je034076x)
